The subject of data set [1] is WT mouse (C57BL/6 mouse). Put plainly: Single toxicity assessment (lethal dose 50, LD50). Type of data set: in vivo. As to the method:
The aminoaromatic compound of the present invention, KDS12008 (Example 1), KDS12017 (Example 16), or KDS12025 (Example 21) was intraperitoneally injected at a single dose of 100, 300, and 1000 mg/kg, respectively, into a WT mouse at about 8 weeks of age (C57BL/6 mouse), and it was assessed whether the animal was dead.

The test system of data set [2] is APP/PS1 mouse hippocampus astrocytes (GFAP). Put plainly: Immunohistochemistry (IHC) I of brain tissue, GFAP. The data set is classed as in vivo. The following applies: 3 mg/kg/day IP for 16 days. As for the experimental part: (§1) The brain of the Alzheimer's animal model of Experimental Example 3 was fixed with formaldehyde, and sliced into a small thickness. The amount of cells or specific protein in the sliced brain was measured with an image by histochemical staining. In the present experimental example, an antibody labeling an astrocyte was used to measure a change in astrocytes related to dementia. The results are illustrated in FIG. 5. That is, in the present experimental example, the hippocampus of the brain was histologically stained and a change in astrocytes around dementia substance amyloid beta was observed. Glial fibrillary acidic protein (GFAP) refers to astrocytes staining, 4′,6-diamidino-2-phenylindole (DAPI) marked cell nuclei and amyloid beta substance.

In data set [3] the target is hemoglobin (Hb) (Homo sapiens, UniProt P68871+P69905). In words: Hydrogen peroxide scavenging ability with hemoglobin (Amplex Red H2O2 assay). The data set is classed as biochemical. The conditions noted are these: 10 μM H2O2, 80 μg/ml hemoglobin, 37° C. about 30 minutes. As for the experimental part:
Amplex Red is a means which turns into a fluorescent substance called resorufin when horse radish peroxidase (HRP) and H2O2 exist together and allows measurement of changes in H2O2, that is, H2O2 assay. […] The experiment was performed by adding hemoglobin instead of HRP to the H2O2 assay by Amplex Red (FIG. 1). The final concentration of each substance was 10 μM of H2O2 and 80 μg/ml of hemoglobin, and the aminoaromatic compound of the present invention was treated by concentration. After the reaction at 37° C. for about 30 minutes as such, fluorescence (excitation: 540 nm, emission: 580 nm) was measured by a microplate reader. At this time, it can be said that fluorescence is proportional to the amount of H2O2. Normalization was performed for each concentration based on a fluorescence value without a drug, and a value at which the fluorescence value was 50%, that is, a half maximal effective concentration (EC50) was determined by a program through statistical processing. The results are shown in the following Table 2, and AAD-2004 was used as a control group.

In data set [4] the test system is APP/PS1 mouse hippocampus cells. In words: Electrophysiology experiment (tonic GABA). The data set is classed as in vivo. The following applies: 3 mg/kg/day or 10 mg/kg/day. As to the method:
The Alzheimer's animal model of Experimental Example 5 was used to confirm the influence of astrocytes and the mechanism causing memory impairment in dementia through an electrophysiology experiment.
Therefore, in the present experimental example, each of the APP/PS1 mouse as the Alzheimer's animal model, the APP/PS1 mouse treated with 3 mg/kg/day or 10 mg/kg/day, respectively, of the aminoaromatic compound of the present invention, KDS12025 (Example 21), and a healthy normal mouse (wild type, WT) was anesthetized, and brain tissues were obtained therefrom to measure an electrical signal of living hippocampus cells. Thus, the tonic GABA which inhibits neurotransmission in a brain cell was measured. The results are illustrated in FIG. 8.

Data set [5] concerns APP/PS1+GiD Alzheimer's model mouse (APP+DTR). In words: Passive avoidance test (PAT) in APP/PS1+GiD mouse. The data set is classed as in vivo. As for the experimental part:
In the present experiment, APP/PS1+GiD was produced by injecting AAV-GFAP104-DTR-GFP virus into the hippocampus of the APP/PS1 mouse, and hereinafter, is referred to as “APP+DTR”. In addition, the product obtained by injecting AAV-GFAP104-GFP virus into the hippocampus of the APP/PS1 mouse was referred to as “APP+GFP”. In addition, APP+DTR to which the aminoaromatic compound of the present invention, KDS12025 (Example 21) was administered was referred to as “APP+DTR+KDS12025”. In addition, as the WT mouse, APP/PS1 and littermate were used, and the product obtained by injecting AAV-GFAP104-GFP virus into the hippocampus of the WT mouse was referred to as “WT+GFP” and the product obtained by injecting AAV-GFAP104-DTR-GFP virus into the hippocampus of the WT mouse was referred to as “WT+DTR”.
In addition, as a result of PAT, the normal mouse (WT+GFP) remembered the dark room where it was given an electrical stimulation well and took a long time to enter the dark room.

The nature of data set [6]: Blood brain barrier (BBB) permeability analysis (PAMPA). The data set is classed as in vitro ADME. As for the experimental part: Based on J Med Chem. 2001 Mar. 15; 44 (6):923-30., an artificial blood brain barrier (BBB) was produced by a parallel artificial membrane permeability assay (PAMPA), and the permeability of the drug was assessed.
On the technique in general: The PAMPA barrier holds no transporters, so it reflects passive diffusion.

In data set [7] the test system is APP/PS1+GiD Alzheimer's model mouse (APP+DTR). Put plainly: Novel place recognition experiment. The data set is classed as in vivo. The following applies: 3 mg/kg/day i.p. As to the method:
The cognitive function related to hippocampus was assessed by a novel place recognition experiment to confirm the cognitive impairment and recovery. The same objects were put for a certain period of time for interaction, and after one hour, the position of only one object was changed. When having a normal cognitive function, a past memory is maintained to grow interest in a new object, but when having cognitive impairment, a new place is not determined. At this time, as an animal model, an APP/PS1+GiD Alzheimer's mode mouse which is a more closely developed model mouse to the phenomenon shown in the Alzheimer's dementia patient was used. The APP/PS1+GiD Alzheimer's model mouse was produced referring to Nature Neuroscience 23, 1555-1566 (2020).
In the present experiment, APP/PS1+GiD was produced by injecting AAV-GFAP104-DTR-GFP virus into the hippocampus of the APP/PS1 mouse, and hereinafter, is referred to as “APP+DTR”. In addition, the product obtained by injecting AAV-GFAP104-GFP virus into the hippocampus of the APP/PS1 mouse was referred to as “APP+GFP”. In addition, APP+DTR to which the aminoaromatic compound of the present invention, KDS12025 (Example 21) was administered was referred to as “APP+DTR+KDS12025”. […]

Data set [8] deals with APP/PS1 mouse. Put plainly: Passive avoidance test (PAT) II. The data set is classed as in vivo. As to the method:
(§2) On the first day of PAT, as an acquisition session, the mouse was allowed to stay in a bright room, and after a certain time, a dark room was opened and a time for the mouse to enter the dark room was measured. When the mouse entered the dark room, an electrical shock (0.5 mA, 2 sec) was given by a foothold. On the second day, as a retrieval session, the mouse was placed in a bright room, and a time for the mouse to enter a dark room was measured. At this time, the door of the dark room was opened first.
3 mg/kg/day (3 mpk) and 10 mg/kg/day (10 mpk) of the aminoaromatic compound of the present invention, KDS12025 (Example 21) was intraperitoneally injected into the APP/PS1 mouse which is used as an Alzheimer's animal model for one week, and the passive avoidance test was performed in the same manner as in Experimental Example 3. The results are illustrated in FIG. 6.

The subject of data set [9] is APP/PS1 mouse hippocampus astrocytes (GFAP). In words: Immunohistochemistry (IHC) II of brain tissue. Type of data set: in vivo. As for the experimental part:
as §1
The Alzheimer's animal model of Experimental Example 5 was used to perform histochemical staining of the brain tissue in the same manner as in Experimental Example 4, and the results are shown in FIG. 7.

Data set [10] has as its system APP/PS1 mouse. In words: Passive avoidance test (PAT) I. Type of data set: in vivo. The following applies: 3 mg/kg/day IP for 16 days. As for the experimental part:
A passive avoidance test is an experiment to check the memory of animals, in which a weak electric stimulation was given in a dark room and it was assessed whether the animal remembered the electrical stimulation.
Since mice preferred a dark room, they have a tendency to move quickly to a dark room when they are in a bright room. […] A time to move from a bright room to a dark room (latency to dark room, sec) was measured, thereby measuring memory of a combination of the electrical stimulation and the dark room. An APP/PS1 mouse which is used as an Alzheimer's animal model was used to perform the passive avoidance test (FIG. 4). A wild type (WT) mouse was used as a control group.
as §2
The APP/PS1 dementia mouse was intraperitoneally injected with the aminoaromatic compound of the present invention (KDS12008 (Example 1), KDS12017 (Example 16), or KDS12025 (Example 21)) (KDS12008 (Example 1) 30 mg/kg/day (30 mpk); KDS12017 (Example 16) 30 mg/kg/day (30 mpk); KDS12025 (Example 21) 3 mg/kg/day (3 mpk)) for 16 days (intraperitoneal injection, IP).

As a reminder, the EC50 is the concentration that produces a half-maximal response. In general, Papp refers to the rate of passage across a membrane or cell layer, normalised by area and donor concentration. A high value points to ready permeation.

The structures appear in SMILES notation.

hemoglobin (Hb), sequence (P69905 2-142 limits assumed): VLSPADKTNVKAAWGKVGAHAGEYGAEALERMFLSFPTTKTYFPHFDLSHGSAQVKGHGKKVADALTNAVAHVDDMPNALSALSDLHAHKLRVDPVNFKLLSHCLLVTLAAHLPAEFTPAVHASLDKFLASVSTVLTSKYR
hemoglobin (Hb), sequence (P68871 2-147 limits assumed): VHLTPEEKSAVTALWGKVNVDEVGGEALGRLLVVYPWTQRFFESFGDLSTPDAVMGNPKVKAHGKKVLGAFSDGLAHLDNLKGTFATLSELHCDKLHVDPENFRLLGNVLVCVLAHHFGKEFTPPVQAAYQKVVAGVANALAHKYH

`CNc1ccc(NCCc2ccccc2OC)cc1` [Example 21]: in [1] (C57BL/6, mouse, in vivo, ip, 300 mg/kg), the animals died entry is “about 50%”. Moreover, the “toxicity (death of animals)” value in [1] (mouse, in vivo, ip, 1000 mg/kg) is given as “showed toxicity”. Also, in data set [1] (single dose 100 mg/kg IP, C57BL/6 mouse), the lethal toxicity result was “lethal toxicity was not shown”. Further, the “GFAP (astrocytes) in hippocampus” value in [2] is reported as “decreased GFAP”. Moreover, in [3], the EC50 was 60 nM. For the same compound, the “tonic GABA” value in data set [4] is “decreased tonic GABA”. Further, the “memory in passive avoidance test” value is given as “recovered memory” in data set [5], “maintained its memory similarly to the healthy normal mouse” in data set [8] (3 mg/kg/day IP for one week) and “maintained its memory similarly to the healthy normal mouse” in [8] (10 mg/kg/day IP for one week). The same compound displayed a Papp at 50 μM in data set [6] of 67.4 ×10⁻⁶ cm/s. Also, the “cognitive function (novel place recognition)” value in [7] is on record as “recovered cognitive function”. Also, the “astrocytes (GFAP staining) in hippocampus” value in data set [9] (3 mg/kg/day IP for one week) and in [9] (10 mg/kg/day IP for one week) was “astrocytes returned to a healthy normal level” throughout. Besides, the “latency to dark room (impaired memory)” value in [10] is on record as “significantly recovered”.

The record behind these values is patent US20230406812A1, “NOVEL AMINOAROMATIC COMPOUND OR PHARMACEUTICALLY ACCEPTABLE SALT THEREOF, AND PHARMACEUTICAL COMPOSITION FOR PREVENTING OR TREATING NEURODEGENERATIVE DISEASES COMPRISING SAME AS ACTIVE INGREDIENT” (INSTITUTE FOR BASIC SCIENCE, priority 2020, published 2023).
